For experiment [1], the system named is PC-3 cells. As to the kind of experiment: antiproliferation assay, PC-3. The format is cell-based. The conditions noted are these: Homo sapiens. On the procedure: (§1) For the antiproliferation assay, NCI-H460 (large cell lung carcinoma) or M14 (amelanotic melanoma) cells were grown in RPMI-1640 with 10% FBS supplemented with L-glutamine and HEPES. Cells were seeded into 96-well plates at 5×10^2 to 5×10^4 cells/well and allowed to adhere overnight; the medium was then removed. A stock solution of test compound in DMSO was diluted in medium to generate a series of working solutions. Aliquots (100 μl) of the working solutions were then added to the appropriate test wells to expose cells to the final concentrations of compound in a total volume of 100 μl. Seven different concentrations were tested, with 2-5 wells per concentration. Camptothecin was used as a positive control; wells containing vehicle without compound were used as negative controls. Plates were kept for 72 h in a 37° C., 5% CO2 incubator. After incubation, viable cells were detected with the CELLTITER 96 AQueous Non-Radioactive Cell Proliferation Assay (Promega), and IC50 values were determined using GraphPad Prism 5 software.
(§2) Antiproliferation of several of the active compounds was tested against additional cell lines.

Experiment [2] has as its system U-87 MG cells. As to the kind of experiment: antiproliferation assay, U-87 MG. It counts as cell-based. Conditions: Homo sapiens. The method, then:
as §1, §2

Experiment [3] deals with M14 (amelanotic melanoma) cells. Put plainly: antiproliferation assay (72 h, CELLTITER 96), M14. The format is cell-based, human. Conditions: Homo sapiens; Table 4. The method, boiled down:
(§3)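 Human M14 melanoma and NCI-H460 lung carcinoma cells in RPMI-1640/10% FBS, seeded at 5×10^2–5×10^4 cells/well and adhered overnight, then exposed to seven compound concentrations for 72 h at 37 °C. Viable cells read by CellTiter 96 AQueous (MTS); IC50 = concentration giving 50% of maximal growth inhibition.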

Experiment [4] concerns LOX-IMVI cells. As to the kind of experiment: antiproliferation assay, LOX-IMVI. The format is cell-based. Conditions: Homo sapiens. On the procedure: as §1, §2
In experiment [5] the test system is SK-Mel-2 cells. As to the kind of experiment: antiproliferation assay, SK-Mel-2. The conditions noted are these: Homo sapiens. The format is cell-based. The method, then: as §1, §2
In experiment [6] the test system is SK-Mel-5 cells. Put plainly: antiproliferation assay, SK-Mel-5. The format is cell-based. The conditions noted are these: Homo sapiens. The method, then: as §1, §2
The test system of experiment [7] is A549 cells. As to the kind of experiment: antiproliferation assay, A549. The format is cell-based. The conditions noted are these: Homo sapiens. The method, then: as §1, §2
In experiment [8] the test system is UACC-62 cells. As to the kind of experiment: antiproliferation assay, UACC-62. The format is cell-based. Conditions: Homo sapiens. The method, then: as §1, §2
The test system of experiment [9] is NCI-H460 (large cell lung carcinoma) cells. Put plainly: antiproliferation assay (72 h, CELLTITER 96), NCI-H460. Conditions: Homo sapiens, NCI-H460, Table 4; read-out: NCI-H460 IC50. The format is cell-based, human. The method, boiled down: as §3
Experiment [10] concerns HCT-116 cells. Put plainly: antiproliferation assay, HCT-116. The format is cell-based. Conditions: Homo sapiens. The method, then: as §1, §2

`C=CC[C@H]1C[C@]2([C@H](C)Cc3ccc(OC)cc3)OCOC2=CC1=O` [Compound 26, (6S,7aR)-6-allyl-7a-((R)-1-(4-methoxyphenyl)propan-2-yl)-7,7a-dihydrobenzo[d][1,3]dioxol-5(6H)-one]: the IC50 in experiment [1] was 0.066 µM; in [2] it was 0.1 µM; in [3] it was 0.081 µM; in experiment [4], 0.15 µM; in experiment [5] it was 0.11 µM; in experiment [6] it was 0.034 µM. In addition, the IC50 in [7] came out at 0.11 µM; in experiment [8] it was 0.096 µM; in experiment [9] it was 0.075 µM; in experiment [10] it was 0.022 µM.

The values above are taken from patent publication US9562031B1, “Phenethyldihydrobenzodioxolones and methods of use” (Sequoia Sciences, Inc., priority 2015, dated 2017).
